From patent US10597388B2, “Pyridazinone herbicides” (FMC CORPORATION, priority 2014, dated 2020)

Legend:
Assay type in all cases: in vivo
[1] = system: barnyardgrass (Echinochloa crus-galli); test: Test A greenhouse herbicide test, pre- and postemergence
How it was run: (§1)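 Visual injury ratings, 0 (no effect) to 100 (complete control), versus untreated plants after roughly 10 d in a greenhouse. Compounds, formulated in a surfactant-containing non-phytotoxic solvent, were sprayed on loam–sand soil after sowing (pre) or on one- to two-leaf plants 2–10 cm tall (post).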

corn (Zea mays) = test: as above; details: Postemergence
How it was run: as §1

[2] = system: foxtail, giant (giant foxtail, Setaria faberii); test: as above
How it was run: as §1

kochia (Kochia scoparia) = test: as above
How it was run: as §1

[3] = system: pigweed (Amaranthus retroflexus); test: as above
How it was run: as §1

[4] = system: ragweed (common ragweed, Ambrosia elatior); test: as above
How it was run: as §1

[5] = system: ryegrass, Italian (Italian ryegrass, Lolium multiflorum); test: as above
How it was run: as §1

[6] = system: wheat (Triticum aestivum); test: as above; details: Postemergence
How it was run: as §1

[7] = system: barnyardgrass (Echinochloa crus-galli); test: Test C greenhouse herbicide test, pre- and postemergence
How it was run: (§2)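 Visual 0–100 injury score (100 = complete control) taken against untreated controls after 13–15 d in greenhouse. Test chemicals, formulated in solvent plus surfactant, applied preemergence to seeds in loam–sand soil or postemergence to 1- to 4-leaf plants (2–18 cm).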

[8] = system: galium (catchweed bedstraw, Galium aparine); test: as above
How it was run: as §2

[9] = system: velvetleaf (Abutilon theophrasti); test: as above
How it was run: as §2

[10] = Postemergence, 125 g ai/ha, 0 to 100 scale where 0 is no effect and 100 is complete control
[11] = Postemergence, 500 g ai/ha, 0 to 100 scale, 0 is no effect, 100 is complete control
[12] = Preemergence, 125 g ai/ha, 0 to 100 scale where 0 is no effect and 100 is complete control
[13] = Preemergence, 500 g ai/ha, 0 to 100 scale, 0 no effect, 100 complete control
[14] = 125 g ai/ha, 0 to 100 scale where 0 is no effect and 100 is complete control
[15] = 500 g ai/ha, 0 to 100 scale, 0 is no effect, 100 is complete control
[16] = Postemergence, 31 g ai/ha, 0 to 100 scale (0 no effect, 100 complete control)
[17] = Postemergence, 125 g ai/ha, scale 0 to 100, 0 is no effect, 100 is complete control
[18] = Postemergence, 250 g ai/ha, scale 0 to 100, 0 no effect, 100 complete control, 13 to 15 d
[19] = Preemergence, 31 g ai/ha, scale 0 to 100, 0 is no effect, 100 is complete control
[20] = Preemergence, 62 g ai/ha, scale 0 to 100, 0 is no effect, 100 is complete control
[21] = Preemergence, 125 g ai/ha, scale 0 to 100, 0 is no effect, 100 is complete control
[22] = Preemergence, 250 g ai/ha, scale 0 to 100 (0 no effect, 100 complete control)
[23] = postemergence, 62 g ai/ha, scale 0 to 100, 0 no effect, 100 complete control
[24] = Postemergence, 500 g ai/ha, visual rating after approx. 10 d, 0 to 100 scale (0 no effect, 100 complete control)
[25] = Preemergence, 500 g ai/ha, 0 to 100 scale where 0 is no effect and 100 is complete control
[26] = 500 g ai/ha, visual rating after approx. 10 d, 0 to 100 scale (0 no effect, 100 complete control)
[27] = Postemergence, 31 g ai/ha, scale 0 to 100 (0 no effect, 100 complete control)
[28] = Postemergence, 62 g ai/ha, 0 to 100 scale (0 no effect, 100 complete control)
[29] = postemergence, 125 g ai/ha, scale 0 to 100, 0 no effect, 100 complete control

## COc1nn(C)c(=O)c(-c2c(C)ccc3ccccc23)c1O [Compound 54]
[1]; [10]
  Plant response rating, Barnyardgrass: 30
[1]; [11]
  Barnyardgrass plant response rating: 90
[1]; [12]
  Barnyardgrass plant response rating: 40
[1]; [13]
  Plant response rating, Barnyardgrass: 90
Corn (Zea mays); [14]
  Plant response rating, Corn: 20
Corn (Zea mays); [15]
  Corn plant response rating: 30
[2]; [10]
  Plant response rating, Foxtail, Giant: 60
[2]; [11]
  Foxtail, Giant plant response rating: 90
[2]; [12]
  Foxtail, Giant plant response rating: 60
[2]; [13]
  Plant response rating, Foxtail, Giant: 100
Kochia (Kochia scoparia); [10]
  Plant response rating, Kochia: 100
Kochia (Kochia scoparia); [11]
  Kochia plant response rating: 100
Kochia (Kochia scoparia); [12]
  Kochia plant response rating: 50
Kochia (Kochia scoparia); [13]
  Plant response rating, Kochia: 100
[3]; [10]
  Plant response rating, Pigweed: 90
[3]; [11]
  Pigweed plant response rating: 100
[3]; [12]
  Pigweed plant response rating: 100
[3]; [13]
  Plant response rating, Pigweed: 100
[4]; [10]
  Plant response rating, Ragweed: 100
[4]; [11]
  Ragweed plant response rating: 100
[4]; [12]
  Ragweed plant response rating: 90
[4]; [13]
  Plant response rating, Ragweed: 100
[5]; [10]
  Plant response rating, Ryegrass, Italian: 60
[5]; [11]
  Ryegrass, Italian plant response rating: 100
[5]; [12]
  Ryegrass, Italian plant response rating: 30
[5]; [13]
  Plant response rating, Ryegrass, Italian: 100
[6]; [14]
  Plant response rating, Wheat: 20
[6]; [15]
  Wheat plant response rating: 20
[7]; [16]
  Barnyardgrass plant response rating: 15
[7]; [17]
  Plant response rating, Barnyardgrass: 55
[7]; [18]
  Plant response rating, Barnyardgrass: 20
[7]; [19]
  Plant response rating, Barnyardgrass: 15
[7]; [20]
  Plant response rating, Barnyardgrass: 35
[7]; [21]
  Plant response rating, Barnyardgrass: 65
[7]; [22]
  Barnyardgrass plant response rating: 85
[7]; [23]
  Barnyardgrass plant response rating: 30
[8]; [16]
  Galium plant response rating: 95
[8]; [17]
  Plant response rating, Galium: 98
[8]; [18]
  Plant response rating, Galium: 98
[8]; [19]
  Plant response rating, Galium: 95
[8]; [20]
  Plant response rating, Galium: 95
[8]; [21]
  Plant response rating, Galium: 100
[8]; [22]
  Galium plant response rating: 100
[8]; [23]
  Galium plant response rating: 98
[9]; [16]
  Velvetleaf plant response rating: 45
[9]; [17]
  Plant response rating, Velvetleaf: 98
[9]; [18]
  Plant response rating, Velvetleaf: 100
[9]; [19]
  Plant response rating, Velvetleaf: 80
[9]; [20]
  Plant response rating, Velvetleaf: 85
[9]; [21]
  Plant response rating, Velvetleaf: 90
[9]; [22]
  Velvetleaf plant response rating: 95
[9]; [23]
  Velvetleaf plant response rating: 90

## COc1nn(C)c(=O)c(-c2c(C)ccc3ccccc23)c1OC(C)=O [Compound 138]
[1]; [10]
  Plant response rating, Barnyardgrass: 20
[1]; [24]
  Plant response rating, Barnyardgrass: 100
[1]; [12]
  Barnyardgrass plant response rating: 10
[1]; [25]
  Plant response rating, Barnyardgrass: 100
Corn (Zea mays); [14]
  Plant response rating, Corn: 0
Corn (Zea mays); [26]
  Plant response rating, Corn: 20
[2]; [10]
  Plant response rating, Foxtail, Giant: 90
[2]; [24]
  Plant response rating, Foxtail, Giant: 100
[2]; [12]
  Foxtail, Giant plant response rating: 90
[2]; [25]
  Plant response rating, Foxtail, Giant: 100
Kochia (Kochia scoparia); [10]
  Plant response rating, Kochia: 100
Kochia (Kochia scoparia); [24]
  Plant response rating, Kochia: 100
Kochia (Kochia scoparia); [12]
  Kochia plant response rating: 40
Kochia (Kochia scoparia); [25]
  Plant response rating, Kochia: 100
[3]; [10]
  Plant response rating, Pigweed: 90
[3]; [24]
  Plant response rating, Pigweed: 100
[3]; [12]
  Pigweed plant response rating: 100
[3]; [25]
  Plant response rating, Pigweed: 100
[4]; [10]
  Plant response rating, Ragweed: 100
[4]; [24]
  Plant response rating, Ragweed: 100
[4]; [25]
  Plant response rating, Ragweed: 100
[5]; [10]
  Plant response rating, Ryegrass, Italian: 90
[5]; [24]
  Plant response rating, Ryegrass, Italian: 100
[5]; [25]
  Plant response rating, Ryegrass, Italian: 100
[6]; [14]
  Plant response rating, Wheat: 0
[6]; [26]
  Plant response rating, Wheat: 20
[7]; [27]
  Plant response rating, Barnyardgrass: 25
[7]; [28]
  Barnyardgrass plant response rating: 25
[7]; [17]
  Plant response rating, Barnyardgrass: 30
[7]; [18]
  Plant response rating, Barnyardgrass: 40
[7]; [19]
  Plant response rating, Barnyardgrass: 30
[7]; [20]
  Plant response rating, Barnyardgrass: 55
[7]; [21]
  Plant response rating, Barnyardgrass: 90
[7]; [22]
  Barnyardgrass plant response rating: 98
[8]; [27]
  Plant response rating, Galium: 90
[8]; [28]
  Galium plant response rating: 90
[8]; [18]
  Plant response rating, Galium: 95
[8]; [19]
  Plant response rating, Galium: 95
[8]; [20]
  Plant response rating, Galium: 98
[8]; [21]
  Plant response rating, Galium: 98
[8]; [22]
  Galium plant response rating: 98
[8]; [29]
  Galium plant response rating: 95
[9]; [27]
  Plant response rating, Velvetleaf: 85
[9]; [28]
  Velvetleaf plant response rating: 90
[9]; [18]
  Plant response rating, Velvetleaf: 98
[9]; [19]
  Plant response rating, Velvetleaf: 85
[9]; [20]
  Plant response rating, Velvetleaf: 90
[9]; [21]
  Plant response rating, Velvetleaf: 98
[9]; [22]
  Velvetleaf plant response rating: 100
[9]; [29]
  Velvetleaf plant response rating: 95
